Test results published in ChEMBL document CHEMBL1201862, “PubChem BioAssay data set” (2004).
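Briefly, cells in 96-well plates were exposed to five compound concentrations for 48 h, and endpoints were estimated by linear interpolation. GI50: concentration for 50% inhibition of growth.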 Active and inactive are the calls of the source. Rule as the data show it: active = GI50 up to about 1.1 µM and inactive = higher.

Assays:
Assay in all cases: NCI anticancer screen, dose series, 48 h
786-0 = system: 786-0
A498 = system: A498
A549 = system: A549
ACHN = system: ACHN
BT-549 = system: BT-549
CAKI-1 = system: CAKI-1
CCRF-CEM = system: CCRF-CEM
COLO 205 = system: COLO 205
DU-145 = system: DU-145
EKVX = system: EKVX
HCC 2998 = system: HCC 2998
HCT-116 = system: HCT-116
HCT-15 = system: HCT-15
HL-60 = system: HL-60
HOP-62 = system: HOP-62
HOP-92 = system: HOP-92
HT-29 = system: HT-29
Hs-578T = system: Hs-578T
IGROV-1 = system: IGROV-1
K562 = system: K562
KM12 = system: KM12
LOX IMVI = system: LOX IMVI
M14 = system: M14
MCF7 = system: MCF7
MDA-MB-231 = system: MDA-MB-231
MDA-MB-435 = system: MDA-MB-435
MDA-N = system: MDA-N
MOLT-4 = system: MOLT-4
Malme-3M = system: Malme-3M
NCI-H226 = system: NCI-H226
NCI-H23 = system: NCI-H23
NCI-H460 = system: NCI-H460
NCI-H522 = system: NCI-H522
NCI/ADR-RES = system: NCI/ADR-RES
OVCAR-3 = system: OVCAR-3
OVCAR-4 = system: OVCAR-4
OVCAR-5 = system: OVCAR-5
OVCAR-8 = system: OVCAR-8
PC-3 = system: PC-3
RPMI-8226 = system: RPMI-8226
RXF 393 = system: RXF 393
SF-268 = system: SF-268
SF-295 = system: SF-295
SF-539 = system: SF-539
SK-MEL-28 = system: SK-MEL-28
SK-MEL-2 = system: SK-MEL-2
SK-MEL-5 = system: SK-MEL-5
SK-OV-3 = system: SK-OV-3
SN12C = system: SN12C
SNB-19 = system: SNB-19
SNB-75 = system: SNB-75
SR = system: SR
SW-620 = system: SW-620
T47D = system: T47D
TK-10 = system: TK-10
U-251 = system: U-251
UACC-257 = system: UACC-257
UACC-62 = system: UACC-62
UO-31 = system: UO-31

Measured: GI50

Nc1nc(Cl)c(N)c(NCC2(CO)CC(O)C2)n1 (stereo not given)
inactive: 786-0 > 100 µM | A498 67.5 µM | A549 > 100 µM | ACHN > 100 µM | BT-549 > 100 µM | CAKI-1 > 100 µM | CCRF-CEM > 100 µM | COLO 205 > 100 µM | DU-145 > 100 µM | EKVX > 100 µM | HCC 2998 46.3 µM | HCT-116 > 100 µM | HL-60 > 100 µM | HOP-62 > 100 µM | HOP-92 > 100 µM | HT-29 > 100 µM | Hs-578T > 100 µM | IGROV-1 > 100 µM | K562 > 100 µM | KM12 > 100 µM | LOX IMVI > 100 µM | M14 > 100 µM | MCF7 > 100 µM | MDA-MB-231 > 100 µM | MDA-MB-435 > 100 µM | MDA-N > 100 µM | MOLT-4 > 100 µM | Malme-3M > 100 µM | NCI-H226 > 100 µM | NCI-H23 > 100 µM | NCI-H460 > 100 µM | NCI-H522 > 100 µM | NCI/ADR-RES > 100 µM | OVCAR-3 > 100 µM | OVCAR-4 > 100 µM | OVCAR-5 > 100 µM | OVCAR-8 > 100 µM | PC-3 > 100 µM | RPMI-8226 > 100 µM | RXF 393 > 100 µM | SF-268 > 100 µM | SF-295 > 100 µM | SF-539 > 100 µM | SK-MEL-28 > 100 µM | SK-MEL-2 > 100 µM | SK-MEL-5 > 100 µM | SK-OV-3 > 100 µM | SN12C > 100 µM | SNB-19 > 100 µM | SNB-75 > 100 µM | SR > 100 µM | SW-620 > 100 µM | T47D > 100 µM | TK-10 > 100 µM | U-251 > 100 µM | UACC-257 > 100 µM | UACC-62 > 100 µM | UO-31 > 100 µM
> 100 µM: HCT-15

CCN(CC)CCCNc1nncc2cc3c([nH]c4ccc(OC)cc43)c(C)c12
19.3 µM: HCT-15
inactive: 786-0 4.13 µM | A498 16.4 µM | A549 9.82 µM | ACHN 8.26 µM | BT-549 16.3 µM | CAKI-1 11.5 µM | CCRF-CEM 2.93 µM | COLO 205 7.26 µM | DU-145 4.03 µM | EKVX 15.8 µM | HCC 2998 6.1 µM | HCT-116 3.38 µM | HOP-62 4.23 µM | HOP-92 10.1 µM | HT-29 3.4 µM | Hs-578T 10.4 µM | IGROV-1 4.14 µM | K562 3.34 µM | KM12 4.2 µM | LOX IMVI 3.84 µM | M14 12.9 µM | MCF7 2.56 µM | MDA-MB-231 7.41 µM | MDA-MB-435 10.8 µM | MDA-N 10.4 µM | MOLT-4 2.3 µM | Malme-3M 13.7 µM | NCI-H226 7.41 µM | NCI-H23 10.7 µM | NCI-H460 3.63 µM | NCI-H522 2.7 µM | NCI/ADR-RES > 100 µM | OVCAR-3 7.05 µM | OVCAR-4 3.27 µM | OVCAR-5 11.5 µM | OVCAR-8 3.98 µM | PC-3 4.01 µM | RPMI-8226 6.84 µM | RXF 393 5.81 µM | SF-268 6.65 µM | SF-295 12.6 µM | SF-539 3.44 µM | SK-MEL-28 15.7 µM | SK-MEL-2 17.7 µM | SK-MEL-5 14.7 µM | SK-OV-3 9.64 µM | SN12C 6.12 µM | SNB-19 5.97 µM | SNB-75 9.59 µM | SR 4.63 µM | SW-620 4.61 µM | T47D 11.8 µM | TK-10 15.3 µM | U-251 3.69 µM | UACC-257 17.6 µM | UACC-62 17.4 µM | UO-31 11.5 µM
active: HL-60 < 0.01 µM

COC1=C2CC(C)CC(OC)[C@@H](OC(=O)CCN)[C@H](C)/C=C(\C)C(OC(N)=O)C(OC)/C=C\C=C(/C)C(=O)NC(=CC1=O)C2=O (stereo not given in full)
active: 786-0 1.05 µM | ACHN 0.773 µM | CCRF-CEM 0.343 µM | COLO 205 0.27 µM | HL-60 0.256 µM | HOP-92 0.697 µM | HT-29 0.465 µM | K562 0.269 µM | LOX IMVI 0.897 µM | MCF7 0.528 µM | MDA-MB-435 0.802 µM | MDA-N 0.78 µM | MOLT-4 0.483 µM | Malme-3M 0.735 µM | NCI-H522 0.255 µM | OVCAR-3 0.843 µM | RPMI-8226 0.871 µM | SK-MEL-28 0.689 µM | SN12C 1.07 µM | SW-620 0.357 µM | T47D 0.486 µM
inactive: A498 17.3 µM | A549 15.7 µM | BT-549 4.91 µM | CAKI-1 4.6 µM | DU-145 8.57 µM | EKVX 12 µM | HCC 2998 1.91 µM | HCT-116 1.82 µM | HOP-62 6.38 µM | Hs-578T 3.73 µM | IGROV-1 1.29 µM | KM12 2.64 µM | M14 4.88 µM | MDA-MB-231 1.99 µM | NCI-H226 20.4 µM | NCI-H23 1.55 µM | NCI-H460 11.1 µM | NCI/ADR-RES 16.4 µM | OVCAR-4 3.03 µM | OVCAR-5 8.57 µM | OVCAR-8 1.9 µM | PC-3 4.06 µM | RXF 393 1.56 µM | SF-268 9.06 µM | SF-295 16.5 µM | SF-539 4.4 µM | SK-MEL-2 9.06 µM | SK-MEL-5 2.92 µM | SK-OV-3 12.8 µM | SNB-19 7.57 µM | SNB-75 20.8 µM | SR 1.26 µM | TK-10 3.54 µM | U-251 2.34 µM | UACC-257 1.43 µM | UACC-62 1.47 µM | UO-31 4.54 µM
2.43 µM: HCT-15

C[N+]1(CCC[N+]2(C)CC3C4C=CC(CC4)C3C2)CCOCC1 (stereo not given)
> 100 µM: HCT-15
inactive: 786-0 > 100 µM | A498 > 100 µM | A549 > 100 µM | ACHN > 100 µM | BT-549 > 100 µM | CAKI-1 > 100 µM | CCRF-CEM > 100 µM | COLO 205 > 100 µM | DU-145 > 100 µM | EKVX > 100 µM | HCC 2998 86.7 µM | HCT-116 > 100 µM | HL-60 > 100 µM | HOP-62 > 100 µM | HOP-92 > 100 µM | HT-29 > 100 µM | Hs-578T > 100 µM | IGROV-1 > 100 µM | K562 > 100 µM | KM12 > 100 µM | LOX IMVI > 100 µM | M14 > 100 µM | MCF7 > 100 µM | MDA-MB-231 > 100 µM | MDA-MB-435 > 100 µM | MDA-N > 100 µM | MOLT-4 > 100 µM | Malme-3M > 100 µM | NCI-H226 > 100 µM | NCI-H23 > 100 µM | NCI-H522 > 100 µM | NCI/ADR-RES > 100 µM | OVCAR-3 > 100 µM | OVCAR-4 > 100 µM | OVCAR-5 > 100 µM | OVCAR-8 > 100 µM | PC-3 > 100 µM | RPMI-8226 > 100 µM | RXF 393 > 100 µM | SF-268 > 100 µM | SF-295 > 100 µM | SF-539 > 100 µM | SK-MEL-28 > 100 µM | SK-MEL-2 > 100 µM | SK-MEL-5 18.5 µM | SK-OV-3 > 100 µM | SN12C > 100 µM | SNB-19 > 100 µM | SNB-75 > 100 µM | SR > 100 µM | SW-620 > 100 µM | T47D > 100 µM | TK-10 > 100 µM | U-251 > 100 µM | UACC-257 > 100 µM | UACC-62 > 100 µM | UO-31 > 100 µM
